# Test results reported in patent US20240343761A1, “APELINERGIC MACROCYCLES AND USES THEREOF” (priority 2021, published 2024).
# Read-outs that look alike come from different tables or passages of the source. Numbered stars: 1 amine (or outer) side, 2 acyl side, 3 side chain; on linkers, the order of the positions; unused ones are H or OH. Bridge positions count the residues as written; N and C are the ends. Square brackets hold non-standard residues; d marks the D form. Peptide text beside a SMILES is read from it. X1 = O=C([C@H](Cc1ccc(OCc2ccccc2)c(C2CCCC2)c1)N[*:1])[*:2]; hArg = N=C(N)NCCCC[C@H](N)C(=O)O; dAllylGly = C=CC[C@@H](N)C(=O)O; AllylGly = C=CC[C@H](N)C(=O)O; pGlu = O=C1CC[C@@H](C(=O)O)N1; Nle = CCCC[C@H](N)C(=O)O
# Assays:
# human APJ (hAPJ) = target: T1, human APJ (hAPJ) (Homo sapiens, UniProt P35414); assay: Competitive radioligand binding ([125I][Nle75,Tyr77][Pyr1]-Ape13) on membranes of HEK293 cells stably expressing human APJ
# T1 construct: expressed in transfected cells; cell membranes
# T1 sequence (P35414 1-380): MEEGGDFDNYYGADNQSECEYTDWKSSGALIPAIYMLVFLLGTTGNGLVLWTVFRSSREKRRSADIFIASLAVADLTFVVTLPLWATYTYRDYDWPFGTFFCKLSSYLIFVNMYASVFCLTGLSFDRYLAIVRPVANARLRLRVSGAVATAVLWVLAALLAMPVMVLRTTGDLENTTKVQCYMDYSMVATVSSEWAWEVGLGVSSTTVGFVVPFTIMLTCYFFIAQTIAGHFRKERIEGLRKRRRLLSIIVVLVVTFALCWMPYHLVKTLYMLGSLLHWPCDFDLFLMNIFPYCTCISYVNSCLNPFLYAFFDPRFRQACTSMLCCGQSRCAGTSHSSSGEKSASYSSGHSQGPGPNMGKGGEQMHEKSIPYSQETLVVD
# Experimental: HEK293 cells stably expressing YFP-tagged human APJ were cultured in DMEM medium supplemented with 10% FBS, at 37° C. under a humid atmosphere maintaining 5% CO2. Antibiotic G418 (400 μg/mL) was added to maintain a selection pressure for APJ-expressing cells while penicillin/streptomycin (0.1%) were used to prevent bacterial contamination.
# Binding experiments were performed on cell membranes of HEK293 stably expressing the YFP-tagged human APJ receptor. Cells were frozen at −80° C. for storage and quickly thawed right before the experiments (1 min at 37° C.). […] The precipitate (cell membranes) was suspended in binding buffer (50 mM Tris-HCl, 0.2% BSA, pH 7.4). Binding assays were run in 96-well plates. […] (820 Ci/mmol)^3 and test ligand with a range of concentrations from 10^−1 to 10^−11 M in a total volume of 200 μL for 1 h at room temperature.
# The incubation mixtures were filtered through a glass fiber filter (Millipore, pre-absorbed of PEI 0.5% for 2 h at 4° C.) to remove unbound ligands, and the filter membranes were washed three times with 170 μL cold binding buffer (4° C.). The γ emission was measured using a 1470 Wizard γ-counter from PerkinElmer (Waltham, USA) (80% efficiency).
# hAPJ receptor [1] = target: T2, hAPJ receptor (Homo sapiens, UniProt P35414); assay: BRET-based Gαi1 activation assay in HEK293 cells; format: cell-based
# T2 construct: expressed in transfected cells; host or cells: HEK293, transient transfection with PEI
# T2 sequence (P35414 1-380): T1 sequence (P35414 1-380)
# Experimental: (§1) HEK293 cells were cultivated in high glucose DMEM medium having 10% FBS, 100 U/mL penicillin/streptomycin, 2 mM glutamine, and 20 mM HEPES at 37° C. in T175 flasks under humidified chamber at 5% CO2. […] Cells were then washed with phosphate-buffered saline (PBS) and 90 μL Hanks' balanced salt solution was added in each well. Then, cells were stimulated with analogs at concentrations ranging from 10^−5 M to 10^−11 M for 5 min at 37° C. (Gαi1) or for 30 min at room temperature (β-arrestin2). After stimulation, 5 μM of coelanterazine 400A was added to each well and the plate was read using the BRET^2 filter set of a GeniosPro plate reader (Tecan, Austria). The BRET ratio was determined as GFP10em/RlucIIem. Data were plotted and EC50 values were determined using GraphPad Prism 8. Each data point represents the mean±SEM of at least three different experiments each done in triplicate.
# hAPJ receptor [2] = target: T2, hAPJ receptor; assay: BRET-based β-arrestin2 recruitment assay in HEK293 cells; format: cell-based
# Experimental: as §1
structure (smiles),measurement,setting,value
"CCCC[C@H](NC(=O)[C@@H]1CCCN1C(=O)CNC(=O)[C@H](CCCCN)NC(=O)[C@H](Cc1c[nH]cn1)NC(=O)[C@H](CO)NC(=O)[C@@H]1CC=CC[C@H](NC(=O)[C@@H]2CCC(=O)N2)C(=O)N2CCC[C@H]2C(=O)N[C@@H](CCCNC(=N)N)C(=O)N1)C(=O)N1CCC[C@H]1C(=O)N[C@@H](Cc1ccccc1)C(=O)O [Compound 3, Pyr-c[X-P-R-X]c-S-H-K-G-P-Nle-P-F] ([pGlu][AllylGly]PR[AllylGly]SHKGP[Nle]PF-OH; staple 2-5)",Ki,human APJ (hAPJ); Ki binding,1250 ± 284 nM
"CCCC[C@H](NC(=O)[C@@H]1CCCN1C(=O)CNC(=O)[C@H](CCCCN)NC(=O)[C@@H]1CC=CC[C@H](NC(=O)[C@@H]2CCC(=O)N2)C(=O)N2CCC[C@H]2C(=O)N[C@@H](CCCNC(=N)N)C(=O)N[C@@H](CC(C)C)C(=O)N[C@@H](CO)C(=O)N1)C(=O)N1CCC[C@H]1C(=O)N[C@@H](Cc1ccccc1)C(=O)O [Compound 4, Pyr-c[X-P-R-L-S-X]c-K-G-P-Nle-P-F] ([pGlu][AllylGly]PRLS[AllylGly]KGP[Nle]PF-OH; staple 2-7)",Ki,human APJ (hAPJ); Ki binding,148 ± 21 nM
"CCCC[C@H](NC(=O)[C@@H]1CCCN1C(=O)CNC(=O)[C@H](CCCCN)NC(=O)[C@H](Cc1c[nH]cn1)NC(=O)[C@H](CO)NC(=O)[C@@H]1CC=CC[C@H](NC(=O)[C@@H]2CCC(=O)N2)C(=O)N2CCC[C@H]2C(=O)N[C@@H](C)C(=O)N1)C(=O)N1CCC[C@H]1C(=O)N[C@@H](Cc1ccccc1)C(=O)O [Compound 5, Pyr-c[X-P-A-X]c-S-H-K-G-P-Nle-P-F] ([pGlu][AllylGly]PA[AllylGly]SHKGP[Nle]PF-OH; staple 2-5)",Ki,human APJ (hAPJ); Ki binding,> 10000 nM
"CCCC[C@H](NC(=O)[C@@H]1CCCN1C(=O)CNC(=O)[C@H](CCCCN)NC(=O)[C@H](Cc1c[nH]cn1)NC(=O)[C@@H]1CC=CC[C@H](NC(=O)[C@@H]2CCC(=O)N2)C(=O)N2CCC[C@H]2C(=O)N[C@@H](C)C(=O)N[C@@H](CC(C)C)C(=O)N1)C(=O)N1CCC[C@H]1C(=O)N[C@@H](Cc1ccccc1)C(=O)O [Compound 6, Pyr-c[X-P-A-L-X]c-H-K-G-P-Nle-P-F]",Ki,human APJ (hAPJ); Ki binding,> 10000 nM
"CCCC[C@H](NC(=O)[C@@H]1CCCN1C(=O)CNC(=O)[C@H](CCCCN)NC(=O)[C@@H]1CC=CC[C@H](NC(=O)[C@@H]2CCC(=O)N2)C(=O)N2CCC[C@H]2C(=O)N[C@@H](C)C(=O)N[C@@H](CC(C)C)C(=O)N[C@@H](CO)C(=O)N1)C(=O)N1CCC[C@H]1C(=O)N[C@@H](Cc1ccccc1)C(=O)O [Compound 7, Pyr-c[X-P-A-L-S-X]c-K-G-P-Nle-P-F] ([pGlu][AllylGly]PALS[AllylGly]KGP[Nle]PF-OH; staple 2-7)",Ki,human APJ (hAPJ); Ki binding,> 10000 nM
"CCCC[C@H](NC(=O)[C@@H]1CCCN1C(=O)CNC(=O)[C@@H]1CC=CC[C@H](NC(=O)[C@@H]2CCC(=O)N2)C(=O)N2CCC[C@H]2C(=O)N[C@@H](C)C(=O)N[C@@H](CC(C)C)C(=O)N[C@@H](CO)C(=O)N[C@@H](Cc2c[nH]cn2)C(=O)N1)C(=O)N1CCC[C@H]1C(=O)N[C@@H](Cc1ccccc1)C(=O)O [Compound 8, Pyr-c[X-P-A-L-S-H-X]c-G-P-Nle-P-F] ([pGlu][AllylGly]PALSH[AllylGly]GP[Nle]PF-OH; staple 2-8)",Ki,human APJ (hAPJ); Ki binding,> 10000 nM
"CCCC[C@@H]1NC(=O)[C@@H]2CCCN2C(=O)[C@H](NC(=O)[C@H](CCCCN)NC(=O)[C@H](Cc2c[nH]cn2)NC(=O)[C@H](CO)NC(=O)[C@H](CC(C)C)NC(=O)[C@H](CCCNC(=N)N)NC(=O)[C@@H]2CCCN2C(=O)[C@H](CCCNC(=N)N)NC(=O)[C@@H]2CCC(=O)N2)CC=CC[C@@H](C(=O)O)NC(=O)[C@@H]2CCCN2C1=O [Compound 9, Pyr-R-P-R-L-S-H-K-[dX-P-Nle-P-X]] ([pGlu]RPRLSHK[dAllylGly]P[Nle]P[AllylGly]-OH; staple 9-13)",Ki,human APJ (hAPJ),52 ± 15 nM
"CCCC[C@@H]1NC(=O)[C@@H]2CCCN2C(=O)[C@@H](NC(=O)[C@H](CCCCN)NC(=O)[C@H](Cc2c[nH]cn2)NC(=O)[C@H](CO)NC(=O)[C@H](CC(C)C)NC(=O)[C@H](CCCNC(=N)N)NC(=O)[C@@H]2CCCN2C(=O)[C@H](CCCNC(=N)N)NC(=O)[C@@H]2CCC(=O)N2)CC=CC[C@H](C(=O)O)NC(=O)[C@@H]2CCCN2C1=O [Compound 10, Pyr-R-P-R-L-S-H-K-[X-P-Nle-P-dX]] ([pGlu]RPRLSHK[AllylGly]P[Nle]P[dAllylGly]-OH; staple 9-13)",Ki,human APJ (hAPJ),187 ± 20 nM
"CC(C)C[C@@H]1NC(=O)[C@H](CCCNC(=N)N)NC(=O)[C@@H](N)CC=CC[C@@H](C(=O)N[C@@H](CCCCN)C(=O)O)NC(=O)[C@H](CO)NC1=O [Compound 30, NH2-c[X-R-L-S-X]c-K] (H-[AllylGly]RLS[AllylGly]K-OH; staple 1-5)",Ki,human APJ (hAPJ); Ki binding,> 10000 nM
"CCCC[C@H](NC(=O)[C@@H]1CCCN1C(=O)CNC(=O)[C@@H]1CC=CC[C@H](N)C(=O)N[C@@H](CCCNC(=N)N)C(=O)N[C@@H](CC(C)C)C(=O)N[C@@H](CO)C(=O)N1)C(=O)O [Compound 31, NH2-c[X-R-L-S-X]c-G-P-Nle] (H-[AllylGly]RLS[AllylGly]GP[Nle]-OH; staple 1-5)",Ki,human APJ (hAPJ); Ki (APJ affinity),0.6 nM
same,Ki,human APJ (hAPJ); Ki binding,> 10000 nM
"CCCC[C@H](NC(=O)[C@@H]1CCCN1C(=O)[C@@H]1CCCCNC(=O)CC[C@H](NC(=O)[C@H](CC(C)C)NC(=O)[C@H](CCCNC(=N)N)NC(=O)[C@@H]2CCCN2C(=O)[C@H](CCCNC(=N)N)NC(=O)[C@H](CCC(N)=O)NC(=O)[C@H](CCCNC(=N)N)NC(=O)[C@H](CCCNC(=N)N)NC(=O)[C@H](Cc2ccccc2)NC(=O)[C@H](CCCCN)NC(C)=O)C(=O)N[C@@H](Cc2c[nH]cn2)C(=O)N[C@@H](CCCCN)C(=O)N1)C(=O)N1CCC[C@H]1C(=O)N[C@@H](Cc1ccc(OCc2ccccc2)c(C2CCCC2)c1)C(=O)O [Compound 63, Ac-K-F-R-R-Q-R-P-R-L-[E-H-K-K]-P-Nle-P-cypTyrOBn] (Ac-KFRRQRPRLEHKKP[Nle]P[X1]-OH; lactam 10-13)",EC50,hAPJ receptor [1],5.48 nM
same,EC50,hAPJ receptor [2],63.6 nM
"CCCC[C@H](NC(=O)[C@@H]1CCC(=O)NCCCC[C@H](N)C(=O)N[C@@H](CCCNC(=N)N)C(=O)N[C@@H](CCCNC(=N)N)C(=O)N1)C(=O)N1CCC[C@H]1C(=O)N[C@@H](CC(C)C)C(=O)N[C@@H](Cc1c[nH]cn1)C(=O)N[C@@H](CO)C(=O)N[C@@H](CCCNC(=N)N)C(=O)N[C@H](C(=O)N1CCC[C@H]1C(=O)N[C@@H](Cc1ccccc1)C(=O)N1CCC[C@H]1C(=O)O)C(C)C [Compound 72, c[K-R-R-E]-Nle-P-L-H-S-R-V-P-F-P] (H-KRRE[Nle]PLHSRVPFP-OH; lactam 1-4)",EC50,hAPJ receptor [1],1.7 ± 0.4 nM
same,EC50,hAPJ receptor [2],47 ± 2 nM
"CC(C)C[C@@H]1NC(=O)[C@@H]2CCCN2C(=O)[C@@H](NC(=O)[C@H](CO)NC(=O)[C@H](CCCCNC(=N)N)NC(=O)[C@H](CCCNC(=N)N)NC(=O)[C@@H]2CCC(=O)N2)CCC(=O)NCCCC[C@@H](C(=O)N[C@@H](CCCNC(=N)N)C(=O)N[C@H](C(=O)N2CCC[C@H]2C(=O)N[C@@H](Cc2ccccc2)C(=O)N2CCC[C@H]2C(=O)O)C(C)C)NC(=O)[C@H](Cc2c[nH]cn2)NC1=O [Compound 91, Pyr-R-hR-S-[E-P-L-H-K]-R-V-P-F-P] ([pGlu]R[hArg]SEPLHKRVPFP-OH; lactam 5-9)",EC50,hAPJ receptor [1],4.3 ± 1.1 nM
same,EC50,hAPJ receptor [2],173 ± 20 nM
"CC(C)C[C@@H]1NC(=O)[C@@H]2CCCN2C(=O)[C@@H](NC(=O)[C@H](CO)NC(=O)[C@H](CCCNC(=N)N)NC(=O)[C@H](CCCNC(=N)N)NC(=O)[C@@H]2CCC(=O)N2)CCC(=O)NCCCC[C@@H](C(=O)N[C@@H](CCCNC(=N)N)C(=O)N[C@H](C(=O)N2CCC[C@H]2C(=O)N[C@@H](Cc2ccccc2)C(=O)N2C[C@H](OCc3ccccc3)C[C@H]2C(=O)O)C(C)C)NC(=O)[C@H](Cc2c[nH]cn2)NC1=O [Compound 93, Pyr-R-R-S-[E-P-L-H-K]-R-V-P-F-Hyp(OBn)]",EC50,hAPJ receptor [1],47 ± 3 nM
same,EC50,hAPJ receptor [2],2200 ± 132 nM
